Calls of active or inactive are those of the source.
Columns and labels:
[1] = molecular target: T1, Exodeoxyribonuclease V (Escherichia coli (strain K12), UniProt P04993+P07648+P08394); test: RecBCD inhibition via phage-restricted bacterial growth – absorbance, V66 E. coli, mutant T4 phage, counter-screen for AddAB inhibitor project, dose response (AID 492957); type: functional, cell-based, Escherichia coli str. K-12 substr. MG1655
T1 sequence (P04993 whole entry): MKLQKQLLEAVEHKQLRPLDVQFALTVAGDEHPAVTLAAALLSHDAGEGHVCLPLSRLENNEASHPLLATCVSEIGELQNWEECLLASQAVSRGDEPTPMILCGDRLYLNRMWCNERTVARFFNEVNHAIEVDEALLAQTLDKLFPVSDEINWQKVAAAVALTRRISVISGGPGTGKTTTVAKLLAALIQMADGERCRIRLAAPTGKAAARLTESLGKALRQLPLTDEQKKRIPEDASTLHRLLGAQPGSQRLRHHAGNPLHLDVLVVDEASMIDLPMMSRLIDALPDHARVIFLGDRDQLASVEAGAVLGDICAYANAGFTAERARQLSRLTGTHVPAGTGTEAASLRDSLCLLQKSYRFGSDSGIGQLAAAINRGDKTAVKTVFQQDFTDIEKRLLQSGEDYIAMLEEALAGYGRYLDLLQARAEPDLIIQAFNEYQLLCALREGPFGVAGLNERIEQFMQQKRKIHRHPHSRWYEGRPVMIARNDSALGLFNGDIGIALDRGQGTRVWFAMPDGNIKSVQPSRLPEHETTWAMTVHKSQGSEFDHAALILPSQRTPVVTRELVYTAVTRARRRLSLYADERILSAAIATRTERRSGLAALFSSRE
T1 sequence (P07648 whole entry): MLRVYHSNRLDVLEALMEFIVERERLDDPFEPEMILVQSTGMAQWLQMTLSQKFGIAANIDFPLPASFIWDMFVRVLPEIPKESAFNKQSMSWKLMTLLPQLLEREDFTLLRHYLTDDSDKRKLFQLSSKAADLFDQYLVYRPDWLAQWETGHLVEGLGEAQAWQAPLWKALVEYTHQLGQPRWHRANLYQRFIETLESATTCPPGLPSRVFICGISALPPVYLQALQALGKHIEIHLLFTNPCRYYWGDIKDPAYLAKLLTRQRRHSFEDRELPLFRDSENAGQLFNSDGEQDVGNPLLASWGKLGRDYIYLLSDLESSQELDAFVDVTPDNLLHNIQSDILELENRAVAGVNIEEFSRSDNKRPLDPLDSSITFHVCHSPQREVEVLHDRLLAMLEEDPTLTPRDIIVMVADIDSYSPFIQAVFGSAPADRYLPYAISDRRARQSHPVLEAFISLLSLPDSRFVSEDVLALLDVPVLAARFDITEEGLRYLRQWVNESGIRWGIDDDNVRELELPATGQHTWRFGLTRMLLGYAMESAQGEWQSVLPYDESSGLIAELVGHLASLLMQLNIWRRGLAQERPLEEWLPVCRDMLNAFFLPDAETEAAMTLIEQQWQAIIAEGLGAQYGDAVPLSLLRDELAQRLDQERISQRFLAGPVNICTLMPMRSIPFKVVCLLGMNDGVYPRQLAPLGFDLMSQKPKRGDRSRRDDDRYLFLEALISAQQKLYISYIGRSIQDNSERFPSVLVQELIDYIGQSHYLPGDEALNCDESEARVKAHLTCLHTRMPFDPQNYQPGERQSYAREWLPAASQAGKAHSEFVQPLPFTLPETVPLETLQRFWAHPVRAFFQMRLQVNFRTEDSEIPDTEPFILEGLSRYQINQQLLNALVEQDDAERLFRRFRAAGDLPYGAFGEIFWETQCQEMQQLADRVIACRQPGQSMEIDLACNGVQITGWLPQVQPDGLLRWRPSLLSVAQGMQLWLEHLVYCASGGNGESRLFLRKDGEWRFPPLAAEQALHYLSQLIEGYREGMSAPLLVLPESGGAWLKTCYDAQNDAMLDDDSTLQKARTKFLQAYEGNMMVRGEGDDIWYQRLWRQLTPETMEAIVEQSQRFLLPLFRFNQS
T1 sequence (P08394 whole entry): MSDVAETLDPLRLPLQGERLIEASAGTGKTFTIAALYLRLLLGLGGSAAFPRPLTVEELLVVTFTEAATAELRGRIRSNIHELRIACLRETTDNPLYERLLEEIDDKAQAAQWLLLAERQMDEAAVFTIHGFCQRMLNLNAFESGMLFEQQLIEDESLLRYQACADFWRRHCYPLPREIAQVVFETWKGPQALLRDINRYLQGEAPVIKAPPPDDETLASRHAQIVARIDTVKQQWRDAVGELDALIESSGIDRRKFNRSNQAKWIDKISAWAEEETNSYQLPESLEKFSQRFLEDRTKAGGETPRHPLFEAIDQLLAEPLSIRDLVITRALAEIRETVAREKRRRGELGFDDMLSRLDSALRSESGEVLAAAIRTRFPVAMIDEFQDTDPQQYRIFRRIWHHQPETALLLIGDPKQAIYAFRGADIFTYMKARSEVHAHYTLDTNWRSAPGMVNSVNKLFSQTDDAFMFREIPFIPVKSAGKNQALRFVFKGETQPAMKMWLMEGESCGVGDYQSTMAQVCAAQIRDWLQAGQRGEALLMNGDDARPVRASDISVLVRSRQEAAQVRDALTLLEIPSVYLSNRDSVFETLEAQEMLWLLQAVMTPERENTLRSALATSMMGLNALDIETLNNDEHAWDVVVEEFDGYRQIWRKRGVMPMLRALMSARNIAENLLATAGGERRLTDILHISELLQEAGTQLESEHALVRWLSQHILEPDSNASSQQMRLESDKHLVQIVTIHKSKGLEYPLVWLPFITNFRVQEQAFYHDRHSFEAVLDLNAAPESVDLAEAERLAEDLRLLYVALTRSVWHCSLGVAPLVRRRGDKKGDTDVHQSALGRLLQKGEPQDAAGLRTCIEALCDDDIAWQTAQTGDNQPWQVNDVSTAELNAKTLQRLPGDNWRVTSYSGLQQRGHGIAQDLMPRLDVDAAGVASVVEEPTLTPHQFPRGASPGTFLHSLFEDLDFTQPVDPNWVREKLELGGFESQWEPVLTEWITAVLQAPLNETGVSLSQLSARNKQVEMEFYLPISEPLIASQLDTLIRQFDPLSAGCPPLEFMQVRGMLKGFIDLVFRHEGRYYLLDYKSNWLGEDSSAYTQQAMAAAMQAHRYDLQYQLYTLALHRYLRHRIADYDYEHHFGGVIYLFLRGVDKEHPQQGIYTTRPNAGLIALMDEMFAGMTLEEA

[2] = system: Streptococcus; test: GAS UMAA2166 growth inhibition – luminescence, BacTiterGlo, counter-screen for streptokinase expression inhibitor project, dose response (AID 1915); type: functional, organism-based;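 also: potency for reduction of bacterial viability or growth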

## Cc1ccc(C)c(S(=O)(=O)N2CCN(Cc3ccc(O)c4ncccc34)CC2)c1
[1]
  IC50: > 119 µM (inactive)
[2]
  EC50: 15 µM (active)
